{"source": "paper PMC6018746", "about": "“Activation of the p53-MDM4 regulatory axis defines the anti-tumour response to PRMT5 inhibition through its role in regulating cellular splicing” (Scientific Reports, 2018)", "system": "panel of hematologic and solid cancer lines", "test": "6-day in vitro growth/death assay", "assay_type": "cell-based, human", "conditions": "for IC50: read-out: gIC50", "experimental": "To further develop these molecules and to guide clinical strategy, it was necessary to understand sensitivity in preclinical models by assessing the anti-tumour activity of the PRMT5 inhibitors in various cancers.\nCell lines were obtained from ATCC or DSMZ and were grown in recommended medium, which was most frequently RPMI-1640 containing 10% FBS. Cell line proliferation assays, Western blotting, qRT-PCR, and cell cycle analyses were performed as described previously[27],[28]. Antibody and gene expression reagents are as described in Supplementary Table 16. All studies were conducted in accordance with the GSK Policy on the Care, Welfare and Treatment of Laboratory Animals and were reviewed by the Institutional Animal Care and Use Committee either at GSK or by the ethical review process at the institution where the work was performed. Detailed descriptions of all methods can be found in the Supplemental Materials.", "note": "Where “and” joins values, the source holds several entries; their conditions need not be identical. Equal values may be shown once. Read-outs that look alike come from different tables or passages of the source."}
{"smiles": "CC(=O)N1CCC(Nc2cc(C(=O)NC[C@H](O)CN3CCc4ccccc4C3)ncn2)CC1", "note": "[GSK3326595]", "values": [{"measurement": "IC50", "setting": "5637", "result": 69, "unit": "nM"}, {"measurement": "IC50", "setting": "HCC70", "result": 130, "unit": "nM"}, {"measurement": "IC50", "setting": "HCC1143", "result": 246, "unit": "nM"}, {"measurement": "IC50", "setting": "HCC1806", "result": 98, "unit": "nM"}, {"measurement": "IC50", "setting": "Homo sapiens, 5637", "result": 69.3, "unit": "nM"}, {"measurement": "IC50", "setting": "Homo sapiens, HCC70, HCC70", "result": 130, "unit": "nM"}, {"measurement": "IC50", "setting": "Homo sapiens, HCC1143, HCC1143", "result": 246, "unit": "nM"}, {"measurement": "IC50", "setting": "Homo sapiens, HCC1806, HCC1806", "result": 97.6, "unit": "nM"}, {"measurement": "IC50", "setting": "Homo sapiens, HCC1954, HCC1954", "result": 79.2, "unit": "nM"}, {"measurement": "IC50", "setting": "Homo sapiens, HT-1376, HT-1376", "result": 17600, "unit": "nM"}, {"measurement": "IC50", "setting": "Homo sapiens, J82, J82", "result": 29300, "unit": "nM"}, {"measurement": "IC50", "setting": "Homo sapiens, JM1, JM1", "result": 79, "unit": "nM"}, {"measurement": "IC50", "setting": "Homo sapiens, KMS-11, KMS-11", "result": 66.5, "unit": "nM"}, {"measurement": "IC50", "setting": "Homo sapiens, LN-229, LN-229", "result": 254, "unit": "nM"}, {"measurement": "IC50", "setting": "Homo sapiens, LP-1, LP1", "result": 1940, "unit": "nM"}, {"measurement": "IC50", "setting": "Homo sapiens, MCF7, MCF-7", "result": 61.7, "unit": "nM"}, {"measurement": "IC50", "setting": "Homo sapiens, MDA-MB-231, MDA-MB-231", "result": 544, "unit": "nM"}, {"measurement": "IC50", "setting": "Homo sapiens, MDA-MB-453, MDA-MB-453", "result": 28.7, "unit": "nM"}, {"measurement": "IC50", "setting": "Homo sapiens, MDA-MB-468, MDA-MB-468", "result": 56.5, "unit": "nM"}, {"measurement": "IC50", "setting": "Homo sapiens, MINO", "result": 130, "unit": "nM"}, {"measurement": "IC50", "setting": "Homo sapiens, Maver1, MAVER-1", "result": 84.9, "unit": "nM"}, {"measurement": "IC50", "setting": "Homo sapiens, NCI-H526, NCI-H526", "result": 275, "unit": "nM"}, {"measurement": "IC50", "setting": "Homo sapiens, NCI-H526-R", "result": 344, "unit": "nM"}, {"measurement": "IC50", "setting": "Homo sapiens, NU-DHL-1, NU-DHL-1", "result": 333, "unit": "nM"}, {"measurement": "IC50", "setting": "Homo sapiens, NU-DUL-1, NU-DUL-1", "result": 333, "unit": "nM"}, {"measurement": "IC50", "setting": "Homo sapiens, PER-403, PER-403", "result": 38.3, "unit": "nM"}, {"measurement": "IC50", "setting": "Homo sapiens, PER-624", "result": 524, "unit": "nM"}, {"measurement": "IC50", "setting": "Homo sapiens, PER-704", "result": 658, "unit": "nM"}, {"measurement": "IC50", "setting": "Homo sapiens, Pfeiffer", "result": 421, "unit": "nM"}, {"measurement": "IC50", "setting": "Homo sapiens, RCK8, RCK8", "result": 529, "unit": "nM"}, {"measurement": "IC50", "setting": "Homo sapiens, RL", "result": 11.8, "unit": "nM"}, {"measurement": "IC50", "setting": "Homo sapiens, RPMI-8226, RPMI-8226", "result": 21.7, "unit": "nM"}, {"measurement": "IC50", "setting": "Homo sapiens, RPMI-8226-DOX", "result": 29300, "unit": "nM"}, {"measurement": "IC50", "setting": "Homo sapiens, RPMI-8226-LR5", "result": 286, "unit": "nM"}, {"measurement": "IC50", "setting": "Homo sapiens, SCaBER", "result": 198, "unit": "nM"}, {"measurement": "IC50", "setting": "Homo sapiens, SF-295, SF295", "result": 24700, "unit": "nM"}, {"measurement": "IC50", "setting": "Homo sapiens, SF-539, SF539", "result": 60.9, "unit": "nM"}, {"measurement": "IC50", "setting": "Homo sapiens, SK-BR-3, SK-BR-3", "result": 73.1, "unit": "nM"}, {"measurement": "IC50", "setting": "Homo sapiens, SU-DHL10, SU-DHL-10", "result": 36.7, "unit": "nM"}, {"measurement": "IC50", "setting": "Homo sapiens, SU-DHL-2, SU-DHL-2", "result": 34.1, "unit": "nM"}, {"measurement": "IC50", "setting": "Homo sapiens, SU-DHL-4, SU-DHL-4", "result": 492, "unit": "nM"}, {"measurement": "IC50", "setting": "Homo sapiens, SU-DHL-5, SU-DHL-5", "result": 28.3, "unit": "nM"}, {"measurement": "IC50", "setting": "Homo sapiens, SU-DHL-6, SU-DHL-6", "result": 3.9, "unit": "nM"}, {"measurement": "IC50", "setting": "Homo sapiens, SU-DHL-8, SU-DHL-8", "result": 52.5, "unit": "nM"}, {"measurement": "IC50", "setting": "Homo sapiens, SU-DHL-16, SU-DHL-16", "result": 98.9, "unit": "nM"}, {"measurement": "IC50", "setting": "Homo sapiens, SW780, SW-780", "result": 290, "unit": "nM"}, {"measurement": "IC50", "setting": "Homo sapiens, T-24, T24", "result": 765, "unit": "nM"}, {"measurement": "IC50", "setting": "Homo sapiens, U2932, U2932", "result": 52.5, "unit": "nM"}, {"measurement": "IC50", "setting": "Homo sapiens, U-87 MG", "result": 39.6, "unit": "nM"}, {"measurement": "IC50", "setting": "Homo sapiens, U-2940, U2940", "result": 14800, "unit": "nM"}, {"measurement": "IC50", "setting": "Homo sapiens, UMUC3, UM-UC-3", "result": 29300, "unit": "nM"}, {"measurement": "IC50", "setting": "Homo sapiens, WSU-NHL", "result": 8.4, "unit": "nM"}, {"measurement": "IC50", "setting": "Homo sapiens, WSUDLCL2, WSU-DLCL2", "result": 81.7, "unit": "nM"}, {"measurement": "IC50", "setting": "Homo sapiens, ZR-75-1, ZR-75-1", "result": 11000, "unit": "nM"}, {"measurement": "IC50", "setting": "J82", "result": 29300, "unit": "nM"}, {"measurement": "IC50", "setting": "KMS-11", "result": 66, "unit": "nM"}, {"measurement": "IC50", "setting": "LN-229", "result": 254, "unit": "nM"}, {"measurement": "IC50", "setting": "LP1", "result": 1940, "unit": "nM"}, {"measurement": "IC50", "setting": "MAVER-1", "result": 85, "unit": "nM"}, {"measurement": "IC50", "setting": "MDA-MB-231", "result": 544, "unit": "nM"}, {"measurement": "IC50", "setting": "MDA-MB-453", "result": 29, "unit": "nM"}, {"measurement": "IC50", "setting": "MDA-MB-468", "result": 57, "unit": "nM"}, {"measurement": "IC50", "setting": "MINO", "result": "130 nM and > 100 nM"}, {"measurement": "IC50", "setting": "NCI-H526-R", "result": 344, "unit": "nM"}, {"measurement": "IC50", "setting": "NCI-H526", "result": 275, "unit": "nM"}, {"measurement": "IC50", "setting": "PER-403", "result": 38, "unit": "nM"}, {"measurement": "IC50", "setting": "PER-624", "result": 524, "unit": "nM"}, {"measurement": "IC50", "setting": "PER-704", "result": 658, "unit": "nM"}, {"measurement": "IC50", "setting": "RCK8", "result": 529, "unit": "nM"}, {"measurement": "IC50", "setting": "RL", "result": 14, "unit": "nM"}, {"measurement": "IC50", "setting": "SF295", "result": 24700, "unit": "nM"}, {"measurement": "IC50", "setting": "SF539", "result": 61, "unit": "nM"}, {"measurement": "IC50", "setting": "SK-BR-3", "result": 73, "unit": "nM"}, {"measurement": "IC50", "setting": "SU-DHL-2", "result": 28, "unit": "nM"}, {"measurement": "IC50", "setting": "SU-DHL-4", "result": 492, "unit": "nM"}, {"measurement": "IC50", "setting": "SU-DHL-6", "result": 4, "unit": "nM"}, {"measurement": "IC50", "setting": "SU-DHL-8", "result": 53, "unit": "nM"}, {"measurement": "IC50", "setting": "SU-DHL-10", "result": 54, "unit": "nM"}, {"measurement": "IC50", "setting": "SU-DHL-16", "result": 99, "unit": "nM"}, {"measurement": "IC50", "setting": "ScaBER", "result": 198, "unit": "nM"}, {"measurement": "IC50", "setting": "T24", "result": 765, "unit": "nM"}, {"measurement": "IC50", "setting": "U2932", "result": 53, "unit": "nM"}, {"measurement": "IC50", "setting": "U2940", "result": 10200, "unit": "nM"}, {"measurement": "IC50", "setting": "U-87MG", "result": 40, "unit": "nM"}, {"measurement": "IC50", "setting": "WSU-DLCL2", "result": 82, "unit": "nM"}, {"measurement": "IC50", "setting": "WSU-NHL", "result": 8, "unit": "nM"}, {"measurement": "gIC100", "setting": "Z-138", "result": 80.7, "unit": "nM"}]}
